Values quoted from earlier work in US7521430B2, “N-glucoside compounds having an inhibitory activity against sodium-dependent glucose transporter” (Mitsubishi Tanabe Pharma Corporation, priority 2003, dated 2009).

Test system: diabetic animal models
Conditions: continuous subcutaneous administration

Structure (SMILES): O=C(CCc1ccc(O)cc1)c1c(O)cc(O)cc1O[C@@H]1O[C@H](CO)[C@@H](O)[C@H](O)[C@H]1O [phlorizin]
- hyperglycemia / blood glucose level: hyperglycemia is normalized
